According to PMC6009911, “Inhibition of human cytochromes P450 2A6 and 2A13 by flavonoids, acetylenic thiophenes and sesquiterpene lactones from Pluchea indica and Vernonia cinerea” (Journal of Enzyme Inhibition and Medicinal Chemistry, 2017):
Like-named read-outs stand apart in the source and are kept apart here. Marks after values point to notes of the source that are not given here.

Tests used:
CYP2A13 [1] = target: T1, CYP2A13 (Homo sapiens, UniProt Q16696); assay: Inhibition of CYP2A13-mediated nicotine metabolism; assay type: biochemical; conditions: compound at IC50 value; nicotine 50 μM; 30 min; Supplemental Figure S2
T1 construct: made in house
T1 sequence (Q16696 1-494): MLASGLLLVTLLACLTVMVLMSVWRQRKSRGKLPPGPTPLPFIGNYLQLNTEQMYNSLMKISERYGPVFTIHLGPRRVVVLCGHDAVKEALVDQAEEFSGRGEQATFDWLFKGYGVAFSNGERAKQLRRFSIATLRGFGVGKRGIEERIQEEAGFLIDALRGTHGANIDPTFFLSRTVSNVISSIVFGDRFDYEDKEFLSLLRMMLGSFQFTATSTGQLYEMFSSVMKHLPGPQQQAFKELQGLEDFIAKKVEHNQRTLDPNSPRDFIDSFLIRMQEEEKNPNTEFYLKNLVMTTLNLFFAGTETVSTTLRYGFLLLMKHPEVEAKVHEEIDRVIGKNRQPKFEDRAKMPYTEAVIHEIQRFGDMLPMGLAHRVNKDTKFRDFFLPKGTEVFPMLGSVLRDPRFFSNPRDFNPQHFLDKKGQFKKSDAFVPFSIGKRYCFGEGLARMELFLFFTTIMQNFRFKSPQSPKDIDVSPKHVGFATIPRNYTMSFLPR
Procedure: mixture with nicotine substrate (a final concentration of 50 μM) prior to initiation of each reaction with 50 μM NADPH at room temperature. Each reaction was terminated by addition of ice-cold acetronitrile at 30 min incubation and 50 pmol 7-hydroxycoumarin as internal standard was added. The reaction was centrifuged (12,000 rpm, 10 min, 4 °C) and 20 μl of each sample was analyzed on symmetry RP-C18 column (3.9×150 mm). Gradient condition was isocratic of 12% ACN: 2-propanol (7:3) in 10 mM potassium phosphate buffer (pH 7.4) at flow rate of 1 ml/min. The nicotine peak area in each reaction was compared with that of time zero. The enzyme activity was determined as percent substrate consumption over 30 min. The reactions were […]
(1 picture or pasted object on this page, not shown here)

CYP2A13 [2] = target: T1, CYP2A13; assay: Effects of trapping agents and dialysis on inactivation of CYP2A13; assay type: biochemical; conditions: CYP2A13 inhibition reaction mixture, probe coumarin, compound 10 µM
Procedure: (§1) MBI requires NADPH and time to generate reactive intermediate as inhibitor and ultimately inactivates the enzyme. MBI was evaluated by pre-incubation with each test inhibitor in the reaction at different time periods (0, 10, 20 and 30 min) in the presence of NADPH for time-dependent assay, as described. The apparent inactivation constants, KI and Kinact, were obtained from double reciprocal plots of kobs versus inhibitor concentrations by linear regression analysis on GraphPad Prism 5. Methoxsalen was used as a control mechanism-based inhibitor for time- and NADPH-dependent inhibition assays.
To explore whether inactivation of CYP2As by thiophenes 9–11 and of CYP2A13 by hirsutinolides 5-8 could be reversed, the removal of reversible inhibitory compounds by dialysis and addition of trapping agents (GSH, semicarbazide, catalase or potassium ferricyanide) in the inhibition reaction mixture were performed. […] Similarly, mechanism-based inactivation of both CYP2A6 and CYP2A13 by thiophenes 9–11 could not be reversed (Table 3).

CYP2A13 [3] = target: T1, CYP2A13; assay: Mechanism-based (time- and NADPH-dependent) inactivation of CYP2A13; assay type: biochemical; conditions: pre-incubation 0-30 min with NADPH
Procedure: as §1

CYP2A6 [4] = target: T2, CYP2A6 (Homo sapiens, UniProt P11509); conditions: ref Prasopthum et al., 2015, cited from earlier work
T2 sequence (P11509 1-494): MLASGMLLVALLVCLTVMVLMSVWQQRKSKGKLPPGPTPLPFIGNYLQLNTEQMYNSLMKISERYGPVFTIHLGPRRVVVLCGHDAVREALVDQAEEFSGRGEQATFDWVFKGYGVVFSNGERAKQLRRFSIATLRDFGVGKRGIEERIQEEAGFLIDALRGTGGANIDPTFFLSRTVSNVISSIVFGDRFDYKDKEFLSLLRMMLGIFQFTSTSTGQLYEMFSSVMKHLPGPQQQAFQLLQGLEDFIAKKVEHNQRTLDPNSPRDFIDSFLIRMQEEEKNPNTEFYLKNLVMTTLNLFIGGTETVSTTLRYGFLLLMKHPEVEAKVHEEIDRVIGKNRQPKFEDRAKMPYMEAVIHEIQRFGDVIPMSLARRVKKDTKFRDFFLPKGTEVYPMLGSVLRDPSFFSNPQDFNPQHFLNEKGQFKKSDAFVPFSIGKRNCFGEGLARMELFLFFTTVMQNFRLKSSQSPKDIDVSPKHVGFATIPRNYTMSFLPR

CYP2A6 [5] = target: T2, CYP2A6; parameters: made in house; method as in PMID 25857233; conditions: cited from earlier work
CYP2A6 [6] = target: T2, CYP2A6; parameters: made in house; conditions: ref Prasopthum et al., 2015, cited from earlier work
CYP2A13 [7] = target: T1, CYP2A13; assay: Inhibition of CYP2A13-mediated coumarin 7-hydroxylation, enzymatic reconstitution assay; assay type: biochemical
Procedure: Inhibitory effect of plant extracts, fractions, subfractions and constituents was determined by inhibition assay on CYP2A6- and CYP2A13-mediated coumarin 7-hydroxylation. The recombinant human CYP2A6, CYP2A13 and rat NADPH-dependent cytochrome P450 oxidoreductase (CYPOR) proteins were expressed, purified, according to the methods previously described. […] Rate of 7-hydroxycoumarin product formation was measured on spectrofluorometer (Shimadzu, Kyoto, Japan) at λex = 355 nm, λem = 460 nm. Inhibition effects were determined by incubation with extracts, fractions or purified compounds with coumarin substrate in the reaction mixture and calculated as per cent relative inhibition compared with vehicle control reaction[20] and IC50 values were calculated using GraphPad Prism 5 (GraphPad Software Inc., La Jolla, CA).
as §1

- inhibition of CYP2A13-mediated nicotine metabolism (CYP2A13 [1]): showed inhibition
- activity at 10 µM (CYP2A13 [2]; read-out: Per cent remaining activity, 70 μM K3Fe(CN)6): 25.9 ± 1.87%
- activity at 10 µM (CYP2A13 [2]; read-out: Per cent remaining activity, 2 mM GSH): 33.6 ± 4.8%
- activity at 10 µM (CYP2A13 [2]; read-out: Per cent remaining activity, 5 mM semicarbazide): 25 ± 3.81%
- activity at 10 µM (CYP2A13 [2]; read-out: Per cent remaining activity, 2000 U catalase): 26.6 ± 3.86%
- activity at 10 µM (CYP2A13 [2]; read-out: Per cent remaining activity, Dialysis (+) NADPH): 22.8 ± 1.13%
- activity at 10 µM (CYP2A13 [2]; read-out: Per cent remaining activity, Dialysis (−) NADPH): 85.3 ± 4.98%
- activity at 10 µM (CYP2A13 [2]; read-out: Per cent remaining activity, Pre-incubation): 28.4 ± 2.92%
- kinact (CYP2A13 [3]): 0.001 s⁻¹
- KI (inactivation) (CYP2A13 [3]; read-out: CYP2A13 KI (inactivation constant)): 3.6 ± 1.05 µM
- CYP2A13 Mode of inhibition (CYP2A13 [7]): Mixed type
- IC50 (CYP2A13 [7]; 10-min pre-incubation in the presence of NADPH, read-out: IC50 CYP2A13 Pre-incubation): 7.66 ± 0.98 µM
- IC50 (CYP2A13 [7]; coincubation, coumarin 2 µM, read-out: IC50 CYP2A13 Coincubation): 20.9 ± 1.46 µM
- Ki (CYP2A13 [7]; coumarin 0–40 µM): 7.97 ± 0.78 µM
Compound: C/C=C(\C)C(=O)OC1CC(C)C2(O)CCC(C)(/C=C3/OC(=O)C(COC(C)=O)=C31)O2 (stereo not drawn) [Hirsutinolide 6, 8α-tigloyloxyhirsutinolide-13-O-acetate]
- KI (inactivation) (CYP2A6 [4]; read-out: CYP2A6 KI (inactivation constant)): 15.4 ± 1.8 µM
- CYP2A6 Kinact (CYP2A6 [4]): 0.03 ± 0.01^b
- inhibition of CYP2A6-mediated nicotine metabolism (CYP2A6 [5]): showed inhibition
- IC50 (CYP2A6 [6]; 10-min pre-incubation in the presence of NADPH, read-out: IC50 CYP2A6 Pre-incubation): 20.8 ± 1.1 µM
- IC50 (CYP2A6 [6]; coincubation, coumarin 2 µM, read-out: IC50 CYP2A6 Coincubation): 37.8 ± 3.5 µM
- Ki (CYP2A6 [6]; coumarin 0–40 µM): 30.6 ± 1.5 µM
- CYP2A6 Mode of inhibition (CYP2A6 [6]): Mixed type^b
